The values that follow are results of earlier work, collected in publication PMC10014483 (Bioorganic & Medicinal Chemistry Letters, 2023).

Data set [1] concerns SARS-CoV-2. The following applies: transgenic mouse model of SARS-CoV-2 infection, orally effective.
For data set [2] the following is noted: mice.

Molecules are shown by their SMILES.

Take `CC1(C)[C@@H]2[C@@H](C(=O)N[C@H](C=O)C[C@@H]3CCNC3=O)N(C(=O)COc3ccc(OC(F)(F)F)cc3)C[C@@H]21` [MI-09]: the “viral load in the lungs and lung lesions” value in data set [1] is reported as “significantly reduced”. Take `CC(C)(C)[C@H](NC(=O)C(F)(F)F)C(=O)N1C[C@H]2[C@@H]([C@H]1C(=O)N[C@H](C#N)C[C@@H]1CCNC1=O)C2(C)C` [Nirmatrelvir]: the oral bioavailability entry is listed as “unsatisfied” and the plasma half-life result was “short”. Take `CC(C)(C)OC(=O)Nc1cccn([C@@H](CC2CC2)C(=O)N[C@@H](C[C@@H]2CCNC2=O)C(=O)C(=O)NCc2ccccc2)c1=O` [Compound 13b]: the toxicity result in data set [2] is listed as “low toxicity”.
